Results: patent US7452911B2 (Boehringer Ingelheim Pharma GmbH & Co. KG, priority 2002, dated 2008)

How the values were obtained:
[1] = target: T1, MCH-1R (Rattus norvegicus, UniProt P97639); set-up: host or cells: whole animals (in vivo); settings: animals treated with the antagonist; cited from earlier work
[2] = target: T1, MCH-1R; set-up: host or cells: rats (in vivo); settings: rats; cited from earlier work
[3] = target: T2, hMCH-1R (Homo sapiens, UniProt Q99705); assay: MCH-1 receptor binding test (125I-MCH binding to membranes of hMCH-1R transfected CHO/Galpha16 cells); settings: 100 pM 125I-MCH, membranes of CHO/Galpha16 cells stably transfected with hMCH-1R, 60 minutes at ambient temperature
T2 construct: expressed in transfected cells; host or cells: CHO/Galpha16 cells, stably transfected; membrane preparation
Description: Membranes from CHO/Galpha16 cells stably transfected with human hMCH-1R are resuspended using a syringe (needle 0.6×25 mm) and diluted in test buffer (50 mM HEPES, 10 mM MgCl2, 2 mM EGTA, pH 7.00; 0.1% bovine serum albumin (protease-free), 0.021% bacitracin, 1 μg/ml aprotinin, 1 μg/ml leupeptin and 1 μM phosphoramidone) to a concentration of 5 to 15 μg/ml. […] After the incubation the reaction is filtered using a cell harvester through 0.5% PEI treated glass fibre filters (GF/B, Unifilter Packard). The membrane-bound radioactivity retained on the filter is then determined after the addition of scintillator substance (Packard Microscint 20) in a measuring device (TopCount of Packard).
The analysis of the concentration binding curve is carried out on the assumption of one receptor binding site.

T1 sequence (P97639 whole entry): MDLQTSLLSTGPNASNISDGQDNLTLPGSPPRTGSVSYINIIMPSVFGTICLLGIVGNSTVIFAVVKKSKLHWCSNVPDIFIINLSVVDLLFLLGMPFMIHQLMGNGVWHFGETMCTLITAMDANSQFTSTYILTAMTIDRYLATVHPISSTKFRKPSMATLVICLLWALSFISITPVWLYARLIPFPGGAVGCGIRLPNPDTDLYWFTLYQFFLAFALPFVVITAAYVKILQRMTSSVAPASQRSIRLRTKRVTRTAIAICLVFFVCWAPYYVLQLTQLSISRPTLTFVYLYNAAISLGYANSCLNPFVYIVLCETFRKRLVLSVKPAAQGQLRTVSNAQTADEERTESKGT
T2 sequence (Q99705 whole entry): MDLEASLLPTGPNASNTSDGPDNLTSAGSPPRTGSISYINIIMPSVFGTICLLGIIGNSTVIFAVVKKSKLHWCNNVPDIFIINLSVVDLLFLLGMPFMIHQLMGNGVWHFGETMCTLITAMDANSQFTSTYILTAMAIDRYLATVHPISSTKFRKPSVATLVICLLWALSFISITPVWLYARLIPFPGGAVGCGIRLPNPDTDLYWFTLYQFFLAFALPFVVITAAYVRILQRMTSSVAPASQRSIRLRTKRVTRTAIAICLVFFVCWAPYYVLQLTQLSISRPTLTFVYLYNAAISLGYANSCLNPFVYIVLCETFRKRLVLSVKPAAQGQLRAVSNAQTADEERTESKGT

melting point	SMILES	also measured
170 to 193 °C	Clc1ccc(-c2ccc3nc(C#Cc4ccc(CN5CCCC5)cc4)ccc3c2)cc1 [Example 17, 6-(4-chloro-phenyl)-2-(4-pyrrolidin-1-ylmethyl-phenylethynyl)-quinoline]	
	COCC1=C(C(=O)OC)[C@H](c2ccc(F)c(F)c2)N(C(=O)NCCCN2CCC(c3cccc(NC(C)=O)c3)CC2)C(=O)N1 [SNAP-7941]	body weight in long term trials [1]: lose significant amounts of weight; effects in behavioural experiments [2]: anxiolytic and antidepressant effects
145 °C	Clc1ccc(-c2ccc(C#Cc3ccc4oc(CN5CCCC5)nc4c3)nc2)cc1 [Example 21, 5-[5-(4-chloro-phenyl)-pyridin-2-ylethynyl]-2-pyrrolidin-1-ylmethyl-benzoxazole]	
> 250 °C	CN(C)CC1CCN(CCOc2ccc(C#Cc3ccc(-c4ccc(Cl)cc4)cn3)cc2)CC1.Cl	
114 to 117 °C	Clc1ccc(-c2ccc3nc(C#Cc4cccc(OCCN5CCCC5)c4)ccc3c2)cc1 [Example 19, 6-(4-chloro-phenyl)-2-[3-(2-pyrrolidin-1-yl-ethoxy)-phenylethynyl]-quinoline]	
	CCN(CC)CCOc1ccc(C#Cc2ccc(-c3ccc(F)c(F)c3)cn2)cc1 [Example 1.3, (2-{4-[5-(3,4-difluoro-phenyl)-pyridin-2-ylethynyl]-phenoxy}-ethyl)-diethyl-amine]	IC50 [3]: 74 nM
151 to 153 °C	Clc1ccc(-c2ccc3nc(C#Cc4ccc5oc(CN6CCCC6)nc5c4)ccc3c2)cc1 [Example 20, 6-(4-chloro-phenyl)-2-(2-pyrrolidin-1-ylmethyl-benzoxazol-5-ylethynyl)-quinoline]	
176 to 185 °C	Clc1ccc(-c2ccc3nc(C#Cc4ccc(OCCN5CCCC5)cc4)ccc3c2)cc1 [Example 18, 6-(4-chloro-phenyl)-2-[4-(2-pyrrolidin-1-yl-ethoxy)-phenylethynyl]-quinoline]	
